Source: patent publication US8175860B2, “Method of inhibiting the growth of Helicobacter pylori” (priority 2009, dated 2012)
“And” between values parts separate entries of the source, which are not always exact repeats. Equal entries are not always repeated. Where two headings read alike, the source gives them in different places.

Key:
Type in all cases: biochemical
[1] = target: T1, HpDHQS (dehydroquinate synthase of H. pylori) (Helicobacter pylori, UniProt P56081, I144T); experiment: HpDHQS inhibition assay (thiobarbiturate assay of residual DAHP); conditions: 1 μM HpDHQS, 37° C., pH 7.0
T1 construct: His tag (inferred from the pQE30 vector and nickel-ion purification); made in house; host or cells: E. coli JM109
T1 sequence (P56081 1-343 I144T): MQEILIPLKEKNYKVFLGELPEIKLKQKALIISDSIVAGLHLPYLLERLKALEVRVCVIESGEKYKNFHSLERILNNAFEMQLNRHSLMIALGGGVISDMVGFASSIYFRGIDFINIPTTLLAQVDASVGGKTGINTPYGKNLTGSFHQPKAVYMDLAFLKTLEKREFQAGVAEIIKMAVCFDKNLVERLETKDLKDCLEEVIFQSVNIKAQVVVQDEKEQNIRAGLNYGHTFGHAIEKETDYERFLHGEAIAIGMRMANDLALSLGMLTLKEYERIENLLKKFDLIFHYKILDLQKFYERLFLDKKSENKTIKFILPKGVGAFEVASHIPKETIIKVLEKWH
Description: The level of DAHP was determined by a thiobarbiturate assay method. All assays were conducted at 37° C. in a 200-μl solution containing 20 mM Bis-Tris propane buffer (pH 7.0), 0.5 mM DAHP, 0.02 mM cobalt chloride, 0.02 mM NAD^+ and 1 μM HpDHQS. The residual DAHP was oxidized by per-iodate to produce formylpyruvate, which then reacted with thiobarbiturate to yield a pink adduct, and this chromophore was monitored at A549 after extraction into cyclohexanone.
Compounds were prepared to 100 mM in dimethylsulfoxide (DMSO) solutions. A 5% DMSO control was included for each set of measurements. About 1 μM HpDHQS was added to the mixture containing the compound to be tested with the standard assay mixture. The test compounds were also evaluated whether they interfered the thiobarbiturate assay system in the absence of HpDHQS. The initial velocities were plotted against the inhibitor concentrations to obtain the IC50 by using the following equation A[I]=A[0]×{1−([I]/[I]+IC50)]} wherein A[I] was the enzyme activity with inhibitor concentration [I], and A[0] was the enzyme activity without the inhibitor.

[2] = target: HpSK (H. pylori shikimate kinase) (Helicobacter pylori, UniProt P56073); experiment: Shikimate kinase inhibitor activity assay (pyruvate kinase/lactate dehydrogenase coupled), HpSK; conditions: for inhibition mode with respect to shikimate (SKM): ATP fixed at 2.5 mM, shikimate varied; for inhibition mode with respect to ATP: shikimate fixed at 1.6 mM, ATP varied; for inhibitory effect against shikimate kinase (in words): preliminary screening at 50 μM
Description: The shikimate kinase activity was determined by coupling the release of ADP from the shikimate kinase-catalyzed reaction to the oxidation of NADH using pyruvate kinase (EC 2.7.1.40) and lactate dehydrogenase (EC 1.1.1.27) as coupling enzymes. Shikimate-dependent oxidation of NADH was monitored by the decrease in A340 (ε=6,200 M^−1 cm^−1). The assay was carried out at 25° C. in a mixture containing 100 mM Tris/HCl/KOH buffer, pH 7.5, 50 mM KCl, 5 mM MgCl2, 1.6 mM shikimic acid, 2.5 mM ATP, 1 mM phosphoenolpyruvate, 0.1 mM NADH, 2.5 units of pyruvate kinase/ml, and 2.7 units of lactate dehydrogenase/ml. All assays were conducted in a 96-well microplate spectrophotometer (FLUOstar OPTIMA, BMG LABTECH). Kinetic parameters were obtained using nonlinear regression fitting to the Michaelis-Menten equation. The apparent Km values for each substrate were determined as follows: for ATP the shikimate concentration ([shikimate]) was maintained at 1.6 mM and the [ATP] varied in the range from 0.001 mM to 2.5 mM; for shikimate the [ATP] was maintained at 2.5 mM and the [shikimate] varied in the range from 0.005 to 1.6 mM. The kinetic data were fit to the appropriate equations using the program GraphPad Prism 4 (Software Inc., USA). The kinetic data for determining the Km values were fit to
using the program GraphPad Prism 4 where v was the initial velocity, Vmax was the maximum velocity, Km was the Michaelis constant and [S] was the substrate (shikimate or ATP) concentration. The IC50 value for HpSK inhibition by inhibitors was determined by fitting data to
where v was the initial velocity, Vmax was the maximum velocity, Vmin was the minimum velocity, [I] was the concentration of compounds and n was the Hill slope.
Using GEMDOCK virtual docking and pharmarcophore model, several compounds were selected to assay inhibitor activity for verifying the inhibiting effect on HpSK and MtSK enzyme. Based on the procedure of enzyme activity assay, the initial velocities of the enzyme activity were determined in the presence of compounds (50 μM) dissolved in dimethylsulfoxide (DMSO). The final DMSO concentration in all assay mixtures was 5% (v/v). The assay buffer contained 100 mM Tris/HCl/KOH (pH 7.5), 1.6 mM shikimic acid, 2.5 mM ATP. The reaction was initiated by the addition of the diluted HpSK and MtSK enzyme (85 nM). After the preliminary screening, several compounds were identified to inhibit HpSK and MtSK enzyme activity. The initial velocities of the enzyme activity were determined in the presence of various concentrations of these compounds to investigate the dose-dependent inhibition effects. IC50 values of these compounds were obtained by fitting the data to a sigmoid dose-response equation of the GraphPad Prism 4. Afterwards, inhibitor modality was determined by measuring the effects of inhibitor concentrations on the enzymatic activity as a function of substrate concentration. In the inhibition experiment where the ATP concentration was fixed at 2.5 mM, shikimate was a varied substrate (0.06, 0.12, 0.24, 0.48, and 0.96 mM) when the concentration of inhibitor was varied from 0 to 50 μM. In parallel, in the inhibition experiment where the shikimate concentration was fixed at 1.6 mM, ATP was a varied substrate (0.06, 0.12, 0.24, 0.48, and 0.96 mM) when the concentration of inhibitor was varied from 0 to 50 μM.

[3] = target: MtSK (M. tuberculosis shikimate kinase) (Mycobacterium tuberculosis, UniProt P9WPY3); experiment: Shikimate kinase inhibitor activity assay (pyruvate kinase/lactate dehydrogenase coupled), MtSK; conditions: for inhibition mode with respect to shikimate (SKM): ATP fixed at 2.5 mM, shikimate varied; for inhibition mode with respect to ATP: shikimate fixed at 1.6 mM, ATP varied; for inhibitory effect against shikimate kinase (in words): preliminary screening at 50 μM
[4] = with respect to ATP, read-out: αKi, ATP
[5] = with respect to shikimate, read-out: αKi, SKM
[6] = MtSK, with respect to ATP, read-out: αKi, ATP
[7] = MtSK, with respect to shikimate, read-out: αKi, SKM

Chain of MtSK (M. tuberculosis shikimate kinase) (P9WPY3 whole entry): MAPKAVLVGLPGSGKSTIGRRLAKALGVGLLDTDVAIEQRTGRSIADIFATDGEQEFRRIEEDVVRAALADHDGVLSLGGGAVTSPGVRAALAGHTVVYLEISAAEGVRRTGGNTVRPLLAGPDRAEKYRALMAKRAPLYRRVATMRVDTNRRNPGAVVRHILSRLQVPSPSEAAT
Chain of HpSK (H. pylori shikimate kinase) (P56073 whole entry): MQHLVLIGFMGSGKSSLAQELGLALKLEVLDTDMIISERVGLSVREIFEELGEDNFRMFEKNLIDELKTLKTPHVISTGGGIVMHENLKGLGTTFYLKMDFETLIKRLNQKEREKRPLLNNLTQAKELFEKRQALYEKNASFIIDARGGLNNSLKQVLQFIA

| Compound | IC50 [2] | inhibition mode with respect to shikimate (SKM) [2] | inhibition mode with respect to ATP [2] | Ki [2, 4] | Ki [2, 5] | IC50 ([3]; MtSK) | inhibition mode with respect to shikimate (SKM) ([3]; MtSK) | inhibition mode with respect to ATP ([3]; MtSK) | Ki [3, 6] | Ki [3, 7] | also measured |
| --- | --- | --- | --- | --- | --- | --- | --- | --- | --- | --- | --- |
| CC1CCc2c(sc(NC(=O)CSc3nc4ccccc4s3)c2C#N)C1 (centres unmarked) [HTS11955, 2-(1,3-benzothiazol-2-ylsulfanyl)-N-(3-cyano-6-methyl-4,5,6,7-tetrahydro-1-benzothiophen-2-yl)acetamide] |  |  |  |  |  |  |  |  |  |  | IC50 [1]: 61000 nM |
| Nc1ccc2c(O)c(/N=N/c3ccc4c(O)cc(S(=O)(=O)O)cc4c3)c(S(=O)(=O)O)cc2c1 [Compound 8, (E)-7-amino-4-hydroxy-3-((5-hydroxy-7-sulfonatonaphthalen-2-yl)diazenyl)naphthalene-2-sulfonate] | 4910 nM | Competitive | Competitive | 1850 nM | 1820 nM | 1550 nM | Competitive | Competitive | 240 nM | 610 nM | inhibition mode with respect to shikimate (SKM) ([2]; listed as NSC136535): competitive; inhibition mode with respect to shikimate (SKM) ([3]; MtSK, listed as NSC136535): competitive |
| Cc1cc(/N=N/c2ccc(/N=N/c3ccc(/N=N/c4ccc(O)c(C(=O)O)c4)cc3)c(S(=O)(=O)O)c2C)c(N)cc1N [Compound 6, 5-((E)-(4-((E)-(4-((E)-(2,4-diamino-5-methylphenyl)diazenyl)-3-methyl-2-sulfonatophenyl)diazenyl)phenyl)diazenyl)-2-hydroxybenzoate] | ≤ 10000 nM |  |  |  |  | ≤ 10000 nM |  |  |  |  |  |
| N#C/C(=C/c1ccc(O)c(O)c1)C(=O)c1ccc(O)c(O)c1 [Compound 9, (Z)-2-(3,4-dihydroxybenzoyl)-3-(3,4-dihydroxyphenyl)acrylonitrile, reference compound] | 2300 nM | Noncompetitive | Competitive | 3080 nM | 5350 nM |  | Noncompetitive | Competitive |  |  | inhibition mode with respect to shikimate (SKM) ([2]; listed as AG538): noncompetitive; inhibitory effect against shikimate kinase (in words) [2]: showed inhibitory results; inhibition mode with respect to shikimate (SKM) ([3]; MtSK, listed as AG538): noncompetitive; inhibitory effect against shikimate kinase (in words) ([3]; MtSK): showed inhibitory results |
| 5-((E)-(4-((E)-(2-benzyl-8-hydroxy-6-sulfonatonaphthalen-1-yl)diazenyl)phenyl)diazenyl)-2-hydroxybenzoate [Compound 7] | 6100 nM | Competitive | Competitive | 1970 nM | 2420 nM | 2770 nM | Competitive | Competitive | 730 nM | 1040 nM |  |
| N=C(NO)c1ccc(Oc2cc(Cl)cc(Cl)c2)c([N+](=O)[O-])c1 [Compound 4, (Z)-4-(3,5-dichlorophenoxy)-N′-hydroxy-3-nitrobenzimidamide] | 89800 nM |  |  |  |  | > 50000 nM |  |  |  |  |  |
| O=C1Nc2ccc(I)cc2/C1=C/c1cc(Br)c(O)c(Br)c1 [Compound 10, (Z)-3-(3,5-dibromo-4-hydroxybenzylidene)-5-iodoindolin-2-one, reference compound] | 31400 nM |  |  |  |  |  |  |  |  |  | inhibitory effect against shikimate kinase (in words) [2]: showed inhibitory results; IC50 [3]: 29600 nM; inhibitory effect against shikimate kinase (in words) ([3]; MtSK): showed inhibitory results |
| O=C(O)c1cc(/N=N/c2ccc(/N=N/c3c(Cc4ccccc4)ccc4cc(S(=O)(=O)O)cc(O)c34)cc2)ccc1O [Compound 7, 5-((E)-(4-((E)-(2-benzyl-8-hydroxy-6-sulfonatonaphthalen-1-yl)diazenyl)phenyl)diazenyl)-2-hydroxybenzoate] | ≤ 10000 nM |  |  |  |  | ≤ 10000 nM |  |  |  |  |  |
| O=C1c2cccc3cc([N+](=O)[O-])cc(c23)C(=O)N1c1ccc(S(=O)(=O)Nc2ccc(C(F)(F)F)cc2)cc1 [Compound 1, 4-(5-nitro-1,3-dioxo-1H-benzo[de]isoquinolin-2(3H)-yl)-N-(4-(trifluoromethyl)phenyl)benzenesulfonamide] | 79300 nM |  |  |  |  | > 50000 nM |  |  |  |  |  |
| O=C(Nc1ccc2c(O)cc(S(=O)(=O)O)cc2c1)Nc1ccc2c(O)cc(S(=O)(=O)O)cc2c1 [Compound 5, 7,7′-carbonylbis(azanediyl)bis(4-hydroxynaphthalene-2-sulfonate)] | ≤ 10000 nM and 7770 nM | Noncompetitive | Competitive | 1740 nM | 12800 nM | 2760 nM | Noncompetitive | Competitive | 350 nM | 2670 nM | inhibition mode with respect to shikimate (SKM) ([2]; listed as NSC45174): noncompetitive; inhibition mode with respect to shikimate (SKM) ([3]; MtSK, listed as NSC45174): noncompetitive |
| O=C(NNC(=O)C1c2ccccc2Oc2ccccc21)c1cccc(F)c1 [Compound 3, N′-(3-fluorobenzoyl)-9H-xanthene-9-carbohydrazide] | 40200 nM |  |  |  |  | > 50000 nM |  |  |  |  |  |
| CSc1c(C#N)c(N)nc(SCC(=O)c2cccc([N+](=O)[O-])c2)c1C#N [RH00573, 2-amino-4-methylsulfanyl-6-[2-(3-nitrophenyl)-2-oxoethyl]sulfanylpyridine-3,5-dicarbonitrile] |  |  |  |  |  |  |  |  |  |  | IC50 [1]: 84400 nM |
| 5-((E)-(4-((E)-(4-((E)-(2,4-diamino-5-methylphenyl)diazenyl)-3-methyl-2-sulfonatophenyl)diazenyl)phenyl)diazenyl)-2-hydroxybenzoate [Compound 6] | 4780 nM | Competitive | Competitive | 1050 nM | 1730 nM | 1500 nM | Competitive | Competitive | 320 nM | 660 nM |  |
